# From EP0467099A2, “Substituted acrylophenons” (BAYER AG, priority 1990, dated 1992)
# How the values were obtained:
# [1] = system: Testpflanzen; assay: Pre-emergence test (herbicidal damage rating); type: in vivo; details: seeds watered 24 h after sowing, rated after three weeks, compared with reference 2-[2-(4,6-Dimethoxy)-pyrimidinylthio]-benzoesäuremethylester (EP 223406/Bsp. 11), result in words only
# Description: Lösungsmittel: 5 Gewichtsteile Aceton Emulgator: 1 Gewichtsteil Alkylarylpolyglykolether
# (§1) Zur Herstellung einer zweckmäßigen Wirkstoffzubereitung vermischt man 1 Gewichtsteil Wirkstoff mit der angegebenen Menge Lösungsmittel, gibt die angegebene Menge Emulgator zu und verdünnt das Konzentrat mit Wasser auf die gewünschte Konzentration.
# Samen der Testpflanzen werden in normalen Boden ausgesät und nach 24 Stunden mit der Wirkstoffzubereitung begossen. Dabei hält man die Wassermenge pro Flächeneinheit zweckmäßigerweise konstant. Die Wirkstoffkonzentration in der Zubereitung spielt keine Rolle, entscheidend ist nur die Aufwandmenge des Wirkstoffs pro Flächeneinheit. Nach drei Wochen wird der Schädigungsgrad der Pflanzen bonitiert in % Schädigung im Vergleich zur Entwicklung der unbehandelten Kontrolle. Es bedeuten: • 0 % = keine Wirkung (wie unbehandelte Kontrolle) • 100 % = totale Vernichtung
# [2] = system: Testpflanzen; assay: Post-emergence test (herbicidal damage rating); type: in vivo; details: plants 5 - 15 cm sprayed, rated after three weeks, result in words only; for Wirksamkeit (Schädigungsgrad der Pflanzen): compared with reference 2-[2-(4,6-Dimethoxy)-pyrimidinylthio]-benzoesäuremethylester (EP 223406/Bsp. 11); for Nutzpflanzenselektivität: crop selectivity compared with reference 2-[2-(4,6-Dimethoxy)-pyrimidinylthio]-benzoesäuremethylester (EP 223406/Bsp. 11)
# Description: Lösungsmittel: 5 Gewichtsteile Aceton
# Emulgator: 1 Gewichtsteil Alkylarylpolyglykolether
# as §1
# Mit der Wirkstoffzubereitung spritzt man Testpflanzen, welche eine Höhe von 5 - 15 cm haben, so, daß die jeweils gewünschten Wirkstoffmengen pro Flächeneinheit ausgebracht werden. Die Konzentration der Spritzbrühe wird so gewählt, daß in 1000 I Wasser/ha die jeweils gewünschten Wirkstoffmengen ausgebracht werden. Nach drei Wochen wird der Schädigungsgrad der Pflanzen bonitiert in % Schädigung im Vergleich zur Entwicklung der unbehandelten Kontrolle.
# Es bedeuten: • 0 % = keine Wirkung (wie unbehandelte Kontrolle) • 100 % = totale Vernichtung
Structure (SMILES),Wirksamkeit (Schädigungsgrad der Pflanzen) [1],Wirksamkeit (Schädigungsgrad der Pflanzen) [2],Nutzpflanzenselektivität [2]
"COc1cc(OC)nc(Oc2ccccc2C(=O)C=CN2CCCCCC2)n1 [Beispiel 1, 3-(1-Hexahydroazepino)-1-{2-[2-(4,6-dimethoxy)-pyrimidinyloxy]-phenyl}-prop-2-en-1-on]",deutliche Überlegenheit,deutliche Überlegenheit,deutliche Überlegenheit
"COc1cc(OC)nc(Oc2ccccc2C(=O)C(C)=CN(C)C)n1 [Beispiel 2, 3-Dimethylamino-2-methyl-1-{2-[2-(4,6-dimethoxy)-pyrimidinyloxy]-phenyl}-prop-2-en-1-on]",,deutliche Überlegenheit,deutliche Überlegenheit
"COc1cc(OC)nc(Oc2ccccc2C(=O)C=P(c2ccccc2)(c2ccccc2)c2ccccc2)n1 [Beispiel 3, {2-[2-(4,6-Dimethoxy)-pyrimidinyloxy]-benzoyl}-methylentriphenylphosphoran]",,deutliche Überlegenheit,deutliche Überlegenheit
